Data on three compounds can be found in patent publication US20250127775A1, “METHOD OF INDUCING DENDRITIC AND SYNAPTIC GENESIS IN NEURODE[…] DISEASES” (priority 2018, published 2025).

One data set concerns cortical rat neurons. Briefly: Dendrite and synaptic connections of rat cortical neurons after exposure to tryptamines (FIG. 2). Conditions: 24 hours of exposure, FIG. 2 left to right. It is filed as cell-based. An excerpt:
The effect is dramatic and fast even with very small doses of the compounds which is a desirable profile for a therapeutic molecule. Looking at FIG. 2 from left to right, it is apparent that LSD>DMT>DOI>Vehicle with regards to dendritic and synaptic generation. Potential therapeutics that can be used in the present invention are tryptamines such as tryptamines and phenethylamines selected from the group, N, N-dimethyltryptamine, 5-methoxy-N, N-dimethyltryptamine, Ketamine, noribogaine, psilocin 3,4-methylenedioxymethamphetamine, mescaline, psilocin, and psilocybin. The dose concentration will vary by molecule type but can range for 0.00001 to 250 milligrams to kilograms (mg/kg) of body weight with 0.01 to 50 mg/kg being preferred.

A further data set deals with rat neurons. Briefly: SEM images of rat neurons after exposure to toxic amyloid peptide (FIG. 1). Conditions: exposure for 4 days to 250 micro molar toxic peptide. The format is cell-based. From the text:
At this resolution one can see copious dendritic structures, the round dark circles. The resolution is not high enough to visualize synaptic connections. The image labeled A is of rat neurons after exposure for 4days to 250 micro molar concentrations of toxic peptide. […] This model emulates what is seen in the human versions of AD disease.

For `CN(C)CCc1c[nH]c2ccccc12` [DMT, N, N-dimethyltryptamine], the “rank order with regards to dendritic and synaptic generation” value with cortical rat neurons is “LSD>DMT>DOI>Vehicle”.
On the same count and under the same terms, under `COc1cc(CC(C)N)c(OC)cc1I` (stereo not drawn) [DOI] stands “LSD>DMT>DOI>Vehicle”.
As to “A 42 amyloid proteins: toxic amyloid protein used to compromise rat neurons, dendrites and synaptic connections”, the “degradation of the dendrites (and synaptic connections)” value in the data set on rat neurons was “significant degradation of the dendrites”.
